≈ marks a conversion by molar mass, not a printed value. Where “and” joins values, the source holds several entries; their conditions need not be identical. Equal values may be shown once. Read-outs that look alike come from different tables or passages of the source. Values belong to the compound of their own block, whether it stands above or below them.
Assays:
Format in all cases: physicochemical
[1] = 7 day stress stability, chemical stability by HPLC; details: for Sialic acid Area % (HPLC): two injections
Experimental: The chemical purity was measured on an Agilent HP1100 HPLC system fitted with an Agilent variable wavelength UV detector. Samples were prepared by dissolving in diluent at a concentration of 1 mg/mL before being analysed under the following HPLC conditions:
(§1) The selected Forms (5, 3 and 2) were fully characterized by PLM, XRPD, ^1H NMR and IR spectroscopy, DSC, TG/DTA, GVS (with post-GVS XRPD), Karl Fischer titration for water content and HPLC analysis for purity. All of these forms with the addition of Form 1 were also placed under a stress-stability test, at three different conditions for one week (ambient conditions, 40° C. and 75% relative humidity, 80° C.). In addition to this, an approximate solubility test was conducted on the different solid forms using a solvent addition method.
(§2) All four Forms (1, 2, 3 and 5) were placed under 7 day stress stability testing. This was carried out by placing the four forms under three different conditions for one week. Their physical stability was then analyzed by comparing the diffractograms and the chemical stability was checked by HPLC.

HPLC-UV chemical purity = details: for HPLC (purity): summary Table 13
Experimental: The chemical purity was measured on an Agilent HP1100 HPLC system fitted with an Agilent variable wavelength UV detector. Samples were prepared by dissolving in diluent at a concentration of 1 mg/mL before being analysed under the following HPLC conditions: […]

[2] = Approximate aqueous solubility of the solid forms (solvent addition method); details: for solubility: water, thermodynamic from solid
Experimental: as §1
Approximately 50 mg of each form (1, 2, 3 and 5) was weighed into a 2 ml vial. 20 μl aliquots of deionized water was added to each vial until complete dissolution of the solid was observed. The volume was noted down and the approximate water solubility calculated.

[3] = Thermogravimetric/Differential Thermal Analysis (TG/DTA)
Experimental: Approximately, 10 mg of material was weighed into an open aluminium pan and loaded into a simultaneous thermogravimetric/differential thermal analyser (TG/DTA) and held at room temperature. The sample was then heated at a rate of 10° C./min from 25° C. to 300° C. during which time the change in sample weight was recorded along with any differential thermal events (DTA). Nitrogen was used as the purge gas, at a flow rate of 300 cm^3/min.

[4] = Desolvation / dehydration on heating, form checked by XRPD
Experimental: A weight loss of 33.1% is observed, prior to decomposition, which coincides with an onset in the DTA profile at ca. 108.8° C. (onset of the endotherm). The second endothermic event corresponds with decomposition at ca. 186.3° C. (onset of the endotherm). The 33.1% of loss of weight corresponds to 1.96 molecules of DMSO for 1 molecule of sialic acid. It is thus very likely that Form 4 is a stoichiometric bis-solvate (2:1). The ^1H NMR spectrum is consistent with sialic acid. The only noticeable difference between the spectra of Form 1 and Form 4 is the relative size of the resonance at ca. 2.5 ppm. This is due to DMSO, which further supports that Form 4 is a DMSO solvate.
Referring to PLM images (FIG. 20), the habit of Form 5 is block-like with a length around 100 μm. Strong birefringence is observed. […] Further weight losses are present, which may be due to decomposition. The loss of weight of 10.5% correlates very well with the KF Titration (10.34%). It is very likely Form 5 is a dihydrate (expected loss of weight for a dihydrate is 10.44%). […] This possibly indicates the formation of a new anhydrous form by desolvation of Form 5 (onset seen for Form 1 is ca. 188.9° C.). The difference between the TG/DTA and the DSC traces is likely to be due to the difference in pan (open pan for TG/DTA and pierced closed pan for DSC). […]

[5] = PLM (morphology) of the solid forms; details: for PLM (morphology): particle shape
[6] = Gravimetric Vapour Sorption (GVS) with post-GVS XRPD; details: for GVS mass difference: between 0-90% relative humidity; for Polymorphic form after GVS (XRPD): material reclaimed after GVS run
Experimental: Approximately 10-20 mg of sample was placed into a mesh vapour sorption balance pan and loaded into an IGASorp Moisture Sorption Analyser balance by Hiden Analytical. The sample was subjected to a ramping profile from 40-90% relative humidity (RH) at 10% increments, maintaining the sample at each step until a stable weight had been achieved (98% step completion). After completion of the sorption cycle, the sample was dried using the same procedure to 0% RH, and finally taken back to the starting point of 40% RH. The weight change during the sorption/desorption cycles were plotted, allowing for the hygroscopic nature of the sample to be determined.

[7] = 7 day stress stability, physical form by XRPD
Experimental: XRPD analysis was carried out on a Panalytical X′pert Pro, scanning the samples between 3 and 35° […]. The material was gently ground and loaded onto a multi well plate with Kapton or mylar polymer film to support the sample. The multi well plate was then loaded into a Panalytical diffractometer running in transmission mode and analysed, using the following experimental conditions.
as §1, §2

[8] = Competitive slurry experiments (polymorph stability)
Experimental: Competitive slurry experiments were conducted between Forms 1 and 3 and between Forms 1 and 2. A mixture of the two forms (25 mg per form) being investigated was slurried in 1 mL of solvent for one day at 20° C. or 60° C. in five different solvents (acetone, acetic acid, ethanol, ethyl acetate and ethynol).
Competitive slurries were performed to compare the relative stability between two forms at a given temperature in a given solvent.

[9] = Differential Scanning Calorimetry (DSC)
Experimental: Approximately, 5 mg of material was weighed into an aluminium DSC pan and sealed non-hermetically with a pierced aluminium lid. The sample pan was then loaded into a Seiko DSC6200 (equipped with a cooler) cooled and held at 25° C. Once a stable heat-flow response was obtained, the sample and reference were heated to 210° C. at a scan rate of 10° C./min and the resulting heat flow response monitored. Nitrogen was used as the purge gas, at a flow rate of 50 cm^3/min.

[10] = Slurries of Form 1 at 5° C. followed by XRPD over time
Experimental: Due to the discolouration of samples during slurry experiments in water and water/acetic acid mixtures, slurries of sialic acid (Form 1) were made at 5° C. in water, water/acetic acid (80/20 v/v) mixture, ethyl acetate and acetic acid and stirred for […]. Diffractograms of the slurried solids were recorded after 10 minutes, 4 hours, 20 hours and 28 hours. Form 5 was obtained in slurries containing water at all time points. Form 1 was obtained for acetic acid and ethyl acetate for all time points.

[11] = after 1 week under 40° C., 75% RH
[12] = after 1 week under ambient conditions
[13] = acetone, ethanol, ethyl acetate, ethynol, 20° C. or 60° C.

HPLC (purity) ([1]; after 1 week at 80° C.): 96.8% | Sialic acid Area % (HPLC) [1, 11]: 99.899% and 99.919% | Sodium Pyruvate Area % (HPLC) ([1]; after 1 week under 80° C.): 0.559% | HPLC (purity) ([1]; after 1 week, both ambient and 40° C./75% RH samples): higher than 99.9% | Area % Acetic acid (HPLC) ([1]; stability under 80° C.): 0.000% | Area % N-acetyl-D-glucosamine (HPLC) ([1]; stability under 80° C.): 0.000% | Area % N-acetyl-D-mannosamine (HPLC) ([1]; stability under 80° C.): 0.000% | Area % Sodium Pyruvate (HPLC) (HPLC-UV chemical purity; no stress condition stated): 0.000% | HPLC (purity) (HPLC-UV chemical purity): 99.80% and 99.90% | Approximate solubility ([2]; aqueous): 96.6 mg/mL | Aqueous Solubility, Solubility in g/L ([2]; deionized water, approximate, solvent addition): 96.6 g/L | TGA (weight loss) [3]: 10.5% | TGA temperature of the weight loss [3]: (88.4° C.) | Form after dehydration (XRPD) ([4]; held at 90° C. for 35 min in TG/DTA apparatus): unknown form | PLM (morphology), particle size [5]: < 100 μm | PLM (morphology) [5]: Blocks | Hygroscopicity (GVS) [6]: very slightly hygroscopic | Stability when exposed to different humidity levels [6]: stable | XRPD post DVS [6]: no change | GVS mass difference [6]: 1.45% | Polymorphic form after GVS (XRPD) [6]: same polymorphic form (Form 5) | Physical form (XRPD) after stress ([7]; 1 week at 40° C./75% RH): stable | Physical form (XRPD) after stress ([7]; 1 week at 80° C.): converts to an unknown form | Physical form (XRPD) after stress ([7]; 1 week under ambient conditions): stable | Stability - XRPD post Stability ([7]; at 80° C.): New form 80 °C | Stability - XRPD post Stability ([7]; at RT): Form 5 at RT
Structure (SMILES): CC(=O)N[C@H]1[C@H]([C@H](O)[C@H](O)CO)OC(O)(C(=O)O)C[C@@H]1O (stereo partly drawn) [Form 5, N-acetylneuraminic acid]

Form after desolvation (XRPD) ([4]; 15 min at 100° C. under vacuum): converted to Form 1
Structure (SMILES): CC(=O)N[C@H]1[C@H]([C@H](O)[C@H](O)CO)OC(O)(C(=O)O)C[C@@H]1O (stereo partly drawn) [Form 4, N-acetylneuraminic acid]

Chemical stability ([1]; 1 week stress test, conditions studied): stable | N-acetyl-D-glucosamine Area % (HPLC) [1, 11]: 0.079% and 0.081% | Sialic acid Area % (HPLC) [1, 11]: 99.580% and 99.590% | N-acetyl-D-glucosamine Area % (HPLC) ([1]; after 1 week under 80° C.): 0.062% | N-acetyl-D-glucosamide known impurity [1, 12]: 0.076% | Sialic acid Area % (HPLC) [1, 12]: 99.705% and 99.711% | HPLC purity of recovered samples ([1]; after 1 week, all three conditions (ambient; 40° C./75% RH; 80° C.)): higher than 99.5% | HPLC (purity) (HPLC-UV chemical purity): 99.5% | Form recovered from competitive slurry between Forms 1 and 2 ([8]; acetic acid): mixture of Forms 1 and 3 | Form recovered from competitive slurry between Forms 1 and 3 ([8]; acetic acid): mixture of Form 1 and 3 | Form recovered from competitive slurry between Forms 1 and 2 [8, 13]: Form 1 is recovered | Form recovered from competitive slurry between Forms 1 and 3 [8, 13]: Form 1 is recovered | Relative stability, competitive slurries between Forms 1 and 2 ([8]; all studied conditions): more stable than Form 2 | Relative stability, competitive slurries between Forms 1 and 3 ([8]; all studied conditions except in acetic acid): more stable than Form 3 | Overall relative stability of the form ([8]; competitive slurries, most of the studied conditions): thermodynamically most stable form | solubility ([2]; deionized water, aqueous, read-out: Approximate solubility): 98.5 g/L (≈ 318 mM) | solubility ([2]; deionized water, deionized water, approximate, solvent addition, read-out: Aqueous Solubility, Solubility in g/L): 98.5 g/L (≈ 318 mM) | TGA Decomposition temperature [3]: at 190.2 °C | DSC (thermal events) Endotherm [9]: 188.6° ° C. | PLM (morphology), particle size [5]: <10 μm | PLM (morphology) [5]: Small needles | Form obtained from slurry (XRPD) ([10]; acetic acid, all time points): Form 1 | Form obtained from slurry (XRPD) ([10]; ethyl acetate, all time points): Form 1 | Time to full conversion to Form 5 in slurry ([10]; water and water/acetic acid (80:20 v/v)): ≤ 10 min | Form obtained from slurry (XRPD) ([10]; water, all time points (10 minutes to 28 hours)): Form 5 | Form obtained from slurry (XRPD) ([10]; water/acetic acid (80/20 v/v), all time points): Form 5 | Hygroscopicity (GVS) [6]: very slightly hygroscopic | Stability when exposed to different humidity levels [6]: stable | XRPD post DVS [6]: no change | GVS mass difference [6]: 1.4% | Polymorphic form after GVS (XRPD) [6]: same polymorphic form (Form 1) | Stability as a physical form (XRPD) ([7]; 1 week stress test, overall): stable | Stability - XRPD post Stability ([7]; no single condition stated): no change
Structure (SMILES): CC(=O)N[C@H]1[C@H]([C@H](O)[C@H](O)CO)OC(O)(C(=O)O)C[C@@H]1O (stereo partly drawn) [Form 1, N-acetylneuraminic acid]

Reference: patent publication US10385085B2, “Crystal forms of sialic acid or salt or solvate thereof” (Ultragenyx Pharmaceutical Inc., priority 2015, dated 2019)
